Measurements reported in patent publication US20260022098A1, “BULLEYACONITINE A DERIVATIVE WITH ANALGESIC ACTIVITY, AND PREPARATION METHOD AND APPLICATION THEREOF” (priority 2023, published 2026).

Legend:
Kunming mice [1] = experiment: Analgesic activity by acetic acid-induced writhing method (writhing inhibition rate, ED50); format: in vivo; settings: Mus musculus, sc, read-out: Analgesia rate (%) ± SEM
Experimental: (§1) The experimental animals were Kunming mice (male:female=1:1), weighed 22+2 g, which were provided by Chengdu dossy experimental animals Co., ltd., China. The mice were kept in the animal room of the School of Life Science and Engineering, Southwest Jiaotong University, where the animal room was set at a temperature of 23±2° C., a humidity of […] and a photoperiod of 16:8 h (L:D). Before the experiment, the mice were freely fed for 2-3 days with water and feed to adapt to the new environment. Then, the mice were treated by water and food fasting for 12 h. 10 animals were allocated to each group to ensure that there are at least 6 sets of valid data in each group. The animal experiments were carried out in strict accordance with the national regulations on the management of experimental animals.
(§2) The compounds prepared in the examples provided herein (test sample set) and bulleyaconitine A (positive control set) were all dissolved with 0.1 mol/L HCl according to a molar ratio of 1:1, and then diluted with physiological saline to a concentration to be determined. Blank control was physiological saline containing 0.1 mol/L HCl. The animals in the control groups were subjected to the same treatment as those in experimental groups except that samples to be test were replaced with physiological saline.
(1) Determination of Analgesic Activity Through an Acetic Acid-Induced Writhing Method
10 mice were randomly selected, male:female=1:1, were placed in independent cages. Each mouse was injected subcutaneously with the sample solution mentioned above at a dose of 0.1 mL/10 g body weight. After 15 min, a 0.7% acetic acid solution was intraperitoneally injected. A number of writhing reactions in each mouse within 15 minutes was recorded. The group that the mice were injected with physiological saline subcutaneously was the blank group; the group that the mice were injected with the sample to be tested was the experimental group; and the group that the mice were injected with bulleyaconitine A was the positive group. The analgesic activity was represented by a percentage of the reduced number of writhing compared to the blank group (writhing inhibition rate), which were specifically as follows: writhing inhibition rate (analgesic activity)=(average number of writhing times in the blank group-average number of writhing times in the experimental group)/average number of writhing times in the blank group×100%.
Median Effective Dose (ED50) Determination
The sample to be tested was dissolved with 0.1 mol/L HCl according to the amount of the substance ratio of 1:1, and diluted with physiological saline according to the proportional series to obtain at least 5 groups with different dose concentrations. The writhing inhibition rate of each dose group was tested according to the acetic acid-induced writhing method mentioned above. The obtained dose-writhing inhibition data was entered into the statistical product and service solutions (SPSS) software (version 17.2), and the ED50 of the sample to be tested was calculated through the Probit regression method.

Kunming mice [2] = experiment: Acute toxicity / median lethal dose (LD50) determination, subcutaneous injection; format: in vivo; design: key to Acute toxicity: if death occurred, (+) represented as positive; if no death occurred, (−) represented as negative; settings: mice administered 20 mg/kg subcutaneously, presence of death within 24 h
Experimental: as §1, §2
(2) Median Lethal Dose (LD50) Determination
The sample to be tested was dissolved with 0.1 mol/L HCl according to the amount of the substance ratio of 1:1, and diluted with physiological saline according to the required concentration. 10 mice in each group were randomly selected, half of which were male and half of which were female, and were placed in independent cages. Each mouse was injected subcutaneously with different sample solutions to be tested according to a dose of 0.1 mL/10 g body weight. In the preliminary toxicity experiment, the measured concentration was 20 mg/kg, and then based on the survival rate of the experimental animals in the preliminary experiment, the sample to be tested was set to at least 5 groups with different concentration dose according to the proportional series. The survival rate of mice within 24 h was recorded. The obtained dose-survival rate data was input into the SPSS software (version 17.2), and the LD50 of the sample was calculated according to the Probit regression method.

## CCN1C[C@]2(COC)CC[C@H](OC)[C@@]34C5C[C@]6(O)[C@@H](OC)C[C@@](OC)(C5[C@H]6OC(=O)c5ccc(OC)cc5)C([C@H](OC)C23)[C@@H]14 (stereo partly drawn) [Compound 1]
Kunming mice [1]
  inhibition in vivo at 0.05 mg/kg: 25.5 ± 2.9%
Kunming mice [2]
  Acute toxicity: +

## CCO[C@]12C[C@H](OC)[C@@]3(O)CC(C1[C@H]3OC(=O)c1ccc(OC)cc1)[C@]13C4[C@@H](OC)C2[C@H]1N(CC)C[C@]4(COC)CC[C@@H]3OC (stereo partly drawn) [Compound 2]
Kunming mice [1]
  inhibition in vivo at 0.05 mg/kg: 41.1 ± 1.8%
Kunming mice [2]
  Acute toxicity: +

## CCN1C[C@@]2(COC)C3[C@@H](OC)C4[C@@H]1[C@@]3(C1C[C@]3(O)[C@@H](OC)C[C@@]4(OC)C1[C@H]3O)[C@@H](OC)C[C@H]2O (stereo partly drawn) [Compound 3]
Kunming mice [1]
  inhibition in vivo at 0.05 mg/kg: 9.78 ± 1.9%
Kunming mice [2]
  Acute toxicity: −

## CCO[C@]12C[C@H](OC)[C@@]3(O)CC(C1[C@H]3O)[C@]13C4[C@@H](OC)C2[C@H]1N(CC)C[C@]4(COC)CC[C@@H]3OC (stereo partly drawn) [Compound 4]
Kunming mice [1]
  inhibition in vivo at 0.05 mg/kg: 5.63 ± 1.1%
Kunming mice [2]
  Acute toxicity: −

## CCO[C@]12C[C@H](OC)[C@@]3(OC(=O)C(C)Cl)CC(C1[C@H]3OC(=O)C(C)Cl)[C@]13C4[C@@H](OC)C2[C@H]1N(CC)C[C@]4(COC)CC[C@@H]3OC (stereo partly drawn) [Compound 7]
Kunming mice [1]
  inhibition in vivo at 0.05 mg/kg: 22.8 ± 3.3%
Kunming mice [2]
  Acute toxicity: −

## CCO[C@]12C[C@H](OC)[C@@]3(OC(=O)C4CC4)CC(C1[C@H]3OC(=O)C1CC1)[C@]13C4[C@@H](OC)C2[C@H]1N(CC)C[C@]4(COC)CC[C@@H]3OC (stereo partly drawn) [Compound 8]
Kunming mice [1]
  inhibition in vivo at 0.05 mg/kg: 37.1 ± 1.2%
Kunming mice [2]
  Acute toxicity: −

## CCN1C[C@]2(COC)CC[C@H](OC)[C@@]34C5C[C@]6(OC(=O)c7ccc(OC)cc7)[C@@H](OC)C[C@@](OC(C)=O)(C5[C@H]6OC(=O)c5ccc(OC)cc5)C([C@H](OC)C23)[C@@H]14 (stereo partly drawn) [Compound 9]
Kunming mice [1]
  inhibition in vivo at 0.05 mg/kg: 33.5 ± 1.9%
Kunming mice [2]
  Acute toxicity: −

## CCN1C[C@]2(COC)CC[C@H](OC)[C@@]34C5C[C@]6(OC(=O)C7CC7)[C@@H](OC)C[C@@](OC(C)=O)(C5[C@H]6OC(=O)c5ccc(OC)cc5)C([C@H](OC)C23)[C@@H]14 (stereo partly drawn) [Compound 10]
Kunming mice [1]
  inhibition in vivo at 0.05 mg/kg: 15.2 ± 1.9%
Kunming mice [2]
  Acute toxicity: −

## CCN1C[C@]2(COC)CC[C@H](OC)[C@@]34C5C[C@]6(OC(=O)C7CCCCC7)[C@@H](OC)C[C@@](OC(C)=O)(C5[C@H]6OC(=O)c5ccc(OC)cc5)C([C@H](OC)C23)[C@@H]14 (stereo partly drawn) [Compound 11]
Kunming mice [1]
  inhibition in vivo at 0.05 mg/kg: 35.1 ± 1.2%
Kunming mice [2]
  Acute toxicity: −

## CCO[C@]12C[C@H](OC)[C@@]3(OC(=O)C4CC4)CC(C1[C@H]3OC(=O)c1ccc(OC)cc1)[C@]13C4[C@@H](OC)C2[C@H]1N(CC)C[C@]4(COC)CC[C@@H]3OC (stereo partly drawn) [Compound 16]
Kunming mice [1]
  inhibition in vivo at 0.05 mg/kg: 36.7 ± 1.2%
Kunming mice [2]
  Acute toxicity: −

## CCO[C@]12C[C@H](OC)[C@@]3(OC(=O)c4ccc(Cl)s4)CC(C1[C@H]3OC(=O)c1ccc(Cl)s1)[C@]13C4[C@@H](OC)C2[C@H]1N(CC)C[C@]4(COC)CC[C@@H]3OC (stereo partly drawn) [Compound 18]
Kunming mice [1]
  inhibition in vivo at 0.05 mg/kg: 13.4 ± 0.6%
Kunming mice [2]
  Acute toxicity: −

## CCO[C@]12C[C@H](OC)[C@@]3(OC(=O)c4cccs4)CC(C1[C@H]3OC(=O)c1ccc(OC)cc1)[C@]13C4[C@@H](OC)C2[C@H]1N(CC)C[C@]4(COC)CC[C@@H]3OC (stereo partly drawn) [Compound 19]
Kunming mice [1]
  inhibition in vivo at 0.05 mg/kg: 7.13 ± 2.8%
Kunming mice [2]
  Acute toxicity: −

## CCO[C@]12C[C@H](OC)[C@@]3(OC(=O)c4ccc(Cl)s4)CC(C1[C@H]3OC(=O)c1ccc(OC)cc1)[C@]13C4[C@@H](OC)C2[C@H]1N(CC)C[C@]4(COC)CC[C@@H]3OC (stereo partly drawn) [Compound 20]
Kunming mice [1]
  inhibition in vivo at 0.05 mg/kg: 0%
Kunming mice [2]
  Acute toxicity: −

## CCN1C[C@]2(COC)CC[C@H](OC)[C@@]34C5C[C@]6(OC(=O)c7cccs7)[C@@H](OC)C[C@@](OC(C)=O)(C5[C@H]6OC(=O)c5ccc(OC)cc5)C([C@H](OC)C23)[C@@H]14 (stereo partly drawn) [Compound 21]
Kunming mice [1]
  inhibition in vivo at 0.05 mg/kg: 0%
Kunming mice [2]
  Acute toxicity: −

## CCN1C[C@]2(COC)CC[C@H](OC)[C@@]34C5C[C@]6(OC(=O)c7ccc(Cl)s7)[C@@H](OC)C[C@@](OC(C)=O)(C5[C@H]6OC(=O)c5ccc(OC)cc5)C([C@H](OC)C23)[C@@H]14 (stereo partly drawn) [Compound 22]
Kunming mice [1]
  inhibition in vivo at 0.05 mg/kg: 6.27 ± 2.3%
Kunming mice [2]
  Acute toxicity: −

## CCN1C[C@]2(COC)CC[C@H](OC)[C@@]34C5C[C@]6(OC(=O)C7CCOCC7)[C@@H](OC)C[C@@](OC(C)=O)(C5[C@H]6OC(=O)c5ccc(OC)cc5)C([C@H](OC)C23)[C@@H]14 (stereo partly drawn) [Compound 25]
Kunming mice [1]
  inhibition in vivo at 0.05 mg/kg: 23 ± 0.8%
Kunming mice [2]
  Acute toxicity: −

## CCN1C[C@]2(COC)CC[C@H](OC)[C@@]34C5C[C@]6(OC(=O)C7CCOCC7)[C@@H](OC)C[C@@](OC)(C5[C@H]6OC(=O)C5CCOCC5)C([C@H](OC)C23)[C@@H]14 (stereo partly drawn) [Compound 26]
Kunming mice [1]
  inhibition in vivo at 0.05 mg/kg: 30.5 ± 1%
Kunming mice [2]
  Acute toxicity: −

## CCN1C[C@]2(COC)CC[C@H](OC)[C@@]34C5C[C@]6(OC(=O)c7cccnc7)[C@@H](OC)C[C@@](OC)(C5[C@H]6OC(=O)c5cccnc5)C([C@H](OC)C23)[C@@H]14 (stereo partly drawn) [Compound 30]
Kunming mice [1]
  inhibition in vivo at 0.05 mg/kg: 31.1 ± 2.4%
Kunming mice [2]
  Acute toxicity: −

## CCN1C[C@]2(COC)CC[C@H](OC)[C@@]34C5C[C@]6(OC(=O)c7ccc(OC)cc7)[C@@H](OC)C[C@@](OC)(C5[C@H]6OC(=O)c5ccc(OC)cc5)C([C@H](OC)C23)[C@@H]14 (stereo partly drawn) [Compound 31]
Kunming mice [1]
  inhibition in vivo at 0.05 mg/kg: 17 ± 2.2%
Kunming mice [2]
  Acute toxicity: −

## CCN1C[C@]2(COC)CC[C@H](OC)[C@@]34C5C[C@]6(OC(=O)c7ccco7)[C@@H](OC)C[C@@](OC)(C5[C@H]6OC(=O)c5ccco5)C([C@H](OC)C23)[C@@H]14 (stereo partly drawn) [Compound 32]
Kunming mice [1]
  inhibition in vivo at 0.05 mg/kg: 37.3 ± 1.4%
Kunming mice [2]
  Acute toxicity: −

## CCN1C[C@]2(COC)CC[C@H](OC)[C@@]34C5C[C@]6(OC(=O)c7ccco7)[C@@H](OC)C[C@@](OC)(C5[C@H]6OC(=O)c5ccc(OC)cc5)C([C@H](OC)C23)[C@@H]14 (stereo partly drawn) [Compound 33]
Kunming mice [1]
  inhibition in vivo at 0.05 mg/kg: 30.2 ± 2.6%
Kunming mice [2]
  Acute toxicity: −

## CCN1C[C@]2(COC)CC[C@H](OC)[C@@]34C5C[C@]6(OC(=O)C7CCCCC7)[C@@H](OC)C[C@@](OC)(C5[C@H]6OC(=O)C5CCCCC5)C([C@H](OC)C23)[C@@H]14 (stereo partly drawn) [Compound 34]
Kunming mice [1]
  inhibition in vivo at 0.05 mg/kg: 37 ± 1.4%
Kunming mice [2]
  Acute toxicity: −

## CCOc1ccc(C(=O)O[C@@H]2C3C4C[C@]2(OC(=O)c2ccc(OCC)cc2)[C@@H](OC)C[C@]3(OCC)C2[C@H](OC)C3[C@@]5(COC)CC[C@H](OC)[C@@]43[C@@H]2N(CC)C5)cc1 (stereo partly drawn) [Compound 35]
Kunming mice [1]
  inhibition in vivo at 0.05 mg/kg: 0%
Kunming mice [2]
  Acute toxicity: −

## CCOc1ccc(C(=O)O[C@]23CC4C([C@H]2OC(=O)c2ccc(OC)cc2)[C@](OCC)(C[C@@H]3OC)C2[C@H](OC)C3[C@@]5(COC)CC[C@H](OC)[C@@]43[C@@H]2N(CC)C5)cc1 (stereo partly drawn) [Compound 36]
Kunming mice [1]
  inhibition in vivo at 0.05 mg/kg: 13.6 ± 2.5%
Kunming mice [2]
  Acute toxicity: −
